How the values were obtained:
[1] = test system: five human cancer cell lines (HepG2, HeLa, MCF-7, A549 and SW1990); experiment: In vitro anti-proliferative SRB assay, summary statements over the five-line panel; assay type: cell-based
Experimental: With a aim of identifying potential anticancer agents with enhanced levels of activity, as well as verifying the conclusions provided above, we took a14 as a starting compound, and then designed and synthesized a series of chalcones b1–42 bearing methoxy groups at the 2' and 6'-positions of the B-ring, whilst varying the substituents on the A-ring. The cytotoxicities of the resulting chalcones were evaluated in vitro against five human cancer cell lines and other two non-tumoral cell lines, including HepG2, HeLa, MCF-7, A549, SW1990, HMLE and L02, and the results are shown in Table 2.
HepG2 and MCF7 cells were grown in the Eagle’s minimum essential medium with Earle’s balanced salts (MEM-EBSS) medium, HeLa, A549 and L02 cells were grown in Dulbecco’s Modified Eagle Media (DMEM), SW1990 cells were grown in RPMI-1640 medium, and HMLE cell were grown in DMEM/F-12 medium. The media were supplemented with 100 U/mL penicillin, […] streptomycin and 10% fetal bovine serum (FBS), and incubated at 37 °C in a humidified atmosphere containing 5% CO2.
Cells were seeded into 96-well plates (4000 cells/well) and incubated at 37 °C in a humidified 5% CO2 atmosphere. After 24 h, the cells were treated with different concentrations of the compounds for 48 h in triplicate to generate dose-response curves. Cell viability was evaluated using the sulforhodamine B (SRB) assay as previous described. […] Etoposide was used as the positive control.

[2] = test system: HeLa cells; experiment: In vitro anti-proliferative SRB assay, HeLa; assay type: cell-based, human; conditions: for IC50: Homo sapiens, HeLa, increasing concentrations up to 30 μM, mean ± SD of at least three independent experiments; for SI (CC50 HMLE/IC50 Hela) / SI (CC50 L02/IC50 Hela): selectivity index; for SI (CC50 HMLE/IC50 Hela): HMLE vs HeLa; for SI (CC50 L02/IC50 Hela): L02 vs HeLa
[3] = test system: HepG2 cells; experiment: In vitro anti-proliferative SRB assay, HepG2; assay type: cell-based, human; conditions: for IC50: Homo sapiens, HepG2, increasing concentrations up to 30 μM, mean ± SD of at least three independent experiments; for SI (CC50 HMLE/IC50 HepG2) / SI (CC50 L02/IC50 HepG2): selectivity index; for SI (CC50 HMLE/IC50 HepG2): HMLE vs HepG2; for SI (CC50 L02/IC50 HepG2): L02 vs HepG2
[4] = Cytotoxicity (SRB) against non-tumoral L02 cells; assay type: cell-based, human; conditions: human, L02 cells (non-tumoral human liver cell line); increasing concentrations up to 100 μM; mean ± SD of at least three independent experiments; read-out: Normal Human Cell Lines, CC50, L02
[5] = Cytotoxicity (SRB) against non-tumoral HMLE cells; assay type: cell-based, human; conditions: human, HMLE cells (non-tumoral human mammary epithelial cells); increasing concentrations up to 100 μM; mean ± SD of at least three independent experiments; read-out: Normal Human Cell Lines, CC50, HMLE
[6] = test system: SW1990 cells; experiment: In vitro anti-proliferative SRB assay, SW1990; assay type: cell-based, human; conditions: for IC50: Homo sapiens, SW1990, increasing concentrations up to 30 μM, mean ± SD of at least three independent experiments; for SI (CC50 HMLE/IC50 SW1990) / SI (CC50 L02/IC50 SW1990): selectivity index; for SI (CC50 HMLE/IC50 SW1990): HMLE vs SW1990; for SI (CC50 L02/IC50 SW1990): L02 vs SW1990
[7] = test system: MCF-7 cells; experiment: In vitro anti-proliferative SRB assay, MCF-7; assay type: cell-based, human; conditions: for IC50: Homo sapiens, MCF7, increasing concentrations up to 30 μM, mean ± SD of at least three independent experiments; for SI (CC50 HMLE/IC50 MCF7) / SI (CC50 L02/IC50 MCF7): selectivity index; for SI (CC50 HMLE/IC50 MCF7): HMLE vs MCF7; for SI (CC50 L02/IC50 MCF7): L02 vs MCF7
[8] = test system: A549 cells; experiment: In vitro anti-proliferative SRB assay, A549; assay type: cell-based, human; conditions: for IC50: Homo sapiens, A549, increasing concentrations up to 30 μM, mean ± SD of at least three independent experiments; for SI (CC50 HMLE/IC50 A549) / SI (CC50 L02/IC50 A549): selectivity index; for SI (CC50 HMLE/IC50 A549): HMLE vs A549; for SI (CC50 L02/IC50 A549): L02 vs A549
[9] = test system: human mammary epithelial cell (HMLE); experiment: Cytotoxicity (SRB) against non-tumoral HMLE cells; assay type: cell-based; conditions: HMLE versus the five tumoral cell lines
[10] = most of their in vitro IC50 values against the five human cancer lines
[11] = Homo sapiens, nearly all of the IC50 values

IC50 [1, 10] | IC50 [2] | IC50 [3] | melting point | IC50 [6] | IC50 [7] | IC50 [8] | IC50 [1, 11] | SMILES | SI (CC50 HMLE/IC50 Hela) [2] | SI (CC50 L02/IC50 Hela) [2] | SI (CC50 HMLE/IC50 HepG2) [3] | SI (CC50 L02/IC50 HepG2) [3] | CC50 at 48 h [4] | CC50 at 48 h [5] | SI (CC50 HMLE/IC50 SW1990) [6] | SI (CC50 L02/IC50 SW1990) [6] | SI (CC50 HMLE/IC50 MCF7) [7] | SI (CC50 L02/IC50 MCF7) [7] | SI (CC50 HMLE/IC50 A549) [8] | SI (CC50 L02/IC50 A549) [8] | further results
< 10 µM | 5 ± 0.03 µM | 2.05 ± 0.22 µM | 109 to 111.4 °C | 10 ± 0.14 µM | 5.6 ± 0.17 µM | 6.35 ± 0.32 µM | – | COc1ccccc1C(=O)/C=C/c1c(OC)cccc1OC [b6, (E)-1-(2-Methoxyphenyl)-3-(2,6-dimethoxyphenyl)prop-2-en-1-one] | 0.8 | 1.8 | 2.0 | 4.3 | 8.78 ± 1.21 µM | 4.01 ± 0.05 µM | 0.4 | 0.9 | 0.7 | 1.6 | 0.6 | 1.4 | –
< 10 µM | 5.02 ± 0.09 µM | 4.14 ± 0.11 µM | 105.3 to 107.2 °C | 7.67 ± 0.04 µM | 4.79 ± 0.13 µM | 5.78 ± 0.11 µM | – | CCOc1ccc(C(=O)/C=C/c2c(OC)cccc2OC)cc1OC [b16, (E)-1-(4-Ethoxy-3-methoxyphenyl)-3-(2,6-dimethoxyphenyl)prop-2-en-1-one] | 1.8 | 8.9 | 2.2 | 10.8 | 44.7 ± 8.15 µM | 9.15 ± 1.33 µM | 1.2 | 5.8 | 1.9 | 9.3 | 1.6 | 7.7 | –
< 10 µM | 4.56 ± 0.22 µM | 1.59 ± 0.15 µM | 121 to 122 °C | 9.64 ± 0.18 µM | 5.6 ± 0.06 µM | 4.16 ± 0.72 µM | – | COc1ccc(OC)c(C(=O)/C=C/c2c(OC)cccc2OC)c1 [b18, (E)-1-(2,5-Dimethoxyphenyl)-3-(2,6-dimethoxyphenyl)prop-2-en-1-one] | 0.5 | 3.7 | 1.6 | 10.7 | 17 ± 2.73 µM | 2.48 ± 0.34 µM | 0.3 | 1.8 | 0.4 | 3.0 | 0.6 | 4.1 | –
< 10 µM | 0.87 ± 0.25 µM | 0.25 ± 0.03 µM | 121.7 to 123.5 °C | 1.24 ± 0.08 µM | 2.4 ± 0.08 µM | 1.75 ± 0.15 µM | – | COc1cccc(OC)c1/C=C/C(=O)c1ccc(-c2ccccc2)cc1 [b22, (E)-1-([1,1'-Biphenyl]-4-yl)-3-(2,6-dimethoxyphenyl)prop-2-en-1-one] | 2.5 | 16.7 | 8.8 | 58.2 | 14.5 ± 6.58 µM | 2.21 ± 0.09 µM | 1.8 | 11.7 | 0.9 | 6.1 | 1.3 | 8.3 | fold as potent than etoposide ([3]; HepG2 cells, ratio of IC50 values versus etoposide): 20.4 fold; fold as potent than etoposide ([6]; SW1990 cells, ratio of IC50 values versus etoposide): 23.6 fold
< 10 µM | 7.23 ± 0.07 µM | 5.7 ± 0.09 µM | 148.6 to 150.3 °C | 10.07 ± 0.03 µM | 8.56 ± 0.75 µM | 7.32 ± 0.29 µM | – | COc1cccc(OC)c1/C=C/C(=O)c1cccc(N)c1 [b23, (E)-1-(3-Aminophenyl)-3-(2,6-dimethoxyphenyl)prop-2-en-1-one] | 1.6 | 6.0 | 2.0 | 7.6 | 43.2 ± 11.7 µM | 11.4 ± 0.76 µM | 1.1 | 4.3 | 1.3 | 5.0 | 1.6 | 5.9 | –
– | 24.84 ± 0.17 µM | 17.4 ± 1.01 µM | 218.7 to 220.2 °C | > 30 µM | 23.1 ± 0.82 µM | 17.3 ± 0.76 µM | – | COc1cccc(OC)c1/C=C/C(=O)c1ccc(O)cc1O [b27, (E)-1-(2,4-Dihydroxyphenyl)-3-(2,6-dimethoxyphenyl)prop-2-en-1-one] | >4.0 | 1.4 | >5.8 | 2.0 | 35.5 ± 5.72 µM | > 100 µM | – | <1.2 | >4.3 | 1.5 | >5.8 | 2.1 | SI between the CC50 in HMLE and IC50 in tumoral cells [9]: 2–7 fold
– | > 30 µM | 20.4 ± 0.21 µM | 144.3 to 145.9 °C | > 30 µM | > 30 µM | > 30 µM | > 30 µM | COc1cccc(OC)c1/C=C/C(=O)c1ccc(C#N)cc1 [b30, (E)-1-(4-Cyanophenyl)-3-(2,6-dimethoxyphenyl)prop-2-en-1-one] | <0.4 | – | 0.6 | >4.9 | > 100 µM | 12.6 ± 2.82 µM | <0.4 | – | <0.4 | – | <0.4 | – | –
– | > 30 µM | > 30 µM | 172.3 to 173.7 °C | > 30 µM | > 30 µM | > 30 µM | > 30 µM | COc1cccc(OC)c1/C=C/C(=O)c1cccc([N+](=O)[O-])c1 [b39, (E)-1-(3-Nitrophenyl)-3-(2,6-dimethoxyphenyl)prop-2-en-1-one] | – | – | – | – | > 100 µM | > 100 µM | – | – | – | – | – | – | –
– | > 30 µM | > 30 µM | 147.3 to 148.6 °C | > 30 µM | > 30 µM | > 30 µM | > 30 µM | COc1cccc(OC)c1/C=C/C(=O)c1ccc([N+](=O)[O-])cc1 [b40, (E)-1-(4-Nitrophenyl)-3-(2,6-dimethoxyphenyl)prop-2-en-1-one] | – | – | – | – | > 100 µM | > 100 µM | – | – | – | – | – | – | –
– | 29.1 ± 3.06 µM | 24.4 ± 5.87 µM | 145.3 to 146.7 °C | > 30 µM | > 30 µM | > 30 µM | > 30 µM | COc1cccc(OC)c1/C=C/C(=O)c1cccc(C(F)(F)F)c1 [b41, (E)-1-(3-(Trifluoromethyl)phenyl)-3-(2,6-dimethoxyphenyl)prop-2-en-1-one] | >3.4 | >3.4 | >4.1 | >4.1 | > 100 µM | > 100 µM | – | – | – | – | – | – | –
– | > 30 µM | > 30 µM | 126.5 to 127.8 °C | > 30 µM | > 30 µM | > 30 µM | > 30 µM | COc1cccc(OC)c1/C=C/C(=O)c1cc(C(F)(F)F)cc(C(F)(F)F)c1 [b42, (E)-1-(3,5-bis(Trifluoromethyl)phenyl)-3-(2,6-dimethoxyphenyl)prop-2-en-1-one] | – | – | – | – | > 100 µM | > 100 µM | – | – | – | – | – | – | –
